Assay results taken from US12599597B2, “Substituted N-benzhydrylacetamide inhibitors of jumanji domain histone demethylases for the treatment of cancer” (University of Kentucky Research Foundation, priority 2020, dated 2026).

Key:
FBXL10 (KDM2B) = biological target: T1, FBXL10 (KDM2B) (Homo sapiens, UniProt Q8NHM5); test: Histone demethylase assay, purified enzyme panel; assay type: biochemical; details: 58B1, 10 μM
T1 sequence (Q8NHM5 1-1336): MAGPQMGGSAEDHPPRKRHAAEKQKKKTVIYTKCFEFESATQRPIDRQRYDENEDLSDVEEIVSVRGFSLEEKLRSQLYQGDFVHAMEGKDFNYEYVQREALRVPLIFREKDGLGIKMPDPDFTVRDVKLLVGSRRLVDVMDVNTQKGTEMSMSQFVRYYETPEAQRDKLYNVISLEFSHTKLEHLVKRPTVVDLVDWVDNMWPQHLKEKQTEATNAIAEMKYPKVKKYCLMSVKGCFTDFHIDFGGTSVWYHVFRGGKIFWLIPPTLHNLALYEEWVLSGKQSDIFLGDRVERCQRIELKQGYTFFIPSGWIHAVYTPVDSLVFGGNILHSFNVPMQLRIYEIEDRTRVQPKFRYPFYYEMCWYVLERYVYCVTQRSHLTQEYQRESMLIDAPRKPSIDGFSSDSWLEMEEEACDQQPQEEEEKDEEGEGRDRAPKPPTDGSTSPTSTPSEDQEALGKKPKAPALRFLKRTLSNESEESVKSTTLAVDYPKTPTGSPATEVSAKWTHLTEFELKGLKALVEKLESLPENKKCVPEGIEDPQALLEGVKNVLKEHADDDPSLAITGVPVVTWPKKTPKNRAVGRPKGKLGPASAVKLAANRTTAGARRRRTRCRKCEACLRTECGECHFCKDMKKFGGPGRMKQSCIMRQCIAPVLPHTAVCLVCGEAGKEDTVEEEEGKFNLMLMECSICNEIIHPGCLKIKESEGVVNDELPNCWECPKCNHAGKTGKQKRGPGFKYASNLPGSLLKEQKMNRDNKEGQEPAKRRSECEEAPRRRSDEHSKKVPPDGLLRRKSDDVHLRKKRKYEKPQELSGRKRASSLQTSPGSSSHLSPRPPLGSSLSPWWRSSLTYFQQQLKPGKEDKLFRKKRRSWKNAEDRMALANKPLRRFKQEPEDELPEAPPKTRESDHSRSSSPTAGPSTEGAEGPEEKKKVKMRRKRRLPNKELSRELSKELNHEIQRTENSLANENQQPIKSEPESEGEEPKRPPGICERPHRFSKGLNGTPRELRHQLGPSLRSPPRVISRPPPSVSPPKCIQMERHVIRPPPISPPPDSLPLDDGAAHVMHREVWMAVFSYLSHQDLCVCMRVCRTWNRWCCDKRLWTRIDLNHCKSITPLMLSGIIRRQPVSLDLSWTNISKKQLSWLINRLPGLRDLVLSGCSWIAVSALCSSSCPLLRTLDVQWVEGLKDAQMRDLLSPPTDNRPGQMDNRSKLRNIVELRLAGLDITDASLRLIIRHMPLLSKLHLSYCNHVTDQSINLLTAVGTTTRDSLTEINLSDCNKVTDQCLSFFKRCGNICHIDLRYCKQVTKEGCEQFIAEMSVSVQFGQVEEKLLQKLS
Excerpt: Histone Demethylase Assay
To further examine the effects of 58B1 on histone demethylase, we screened a panel of purified histone demethylases was screened.

LS174T = test: Colon cancer cell proliferation; assay type: cell-based
Protocol: (§1) FIGS. 5A-B show an image and graph illustrating validation of CBA-1. (A) CBA-1 repressed Wnt targets in LS174T CRC cells. (B) CBA-1 inhibited CRC cell proliferation (5d, Vi-Cell viability assay).
(§2) The effects of these compounds on proliferation of colon cancer cell line LS174T and DLD1 were analyzed.
(§3) Identification of a CBA-1 as a novel Wnt inhibitor. The present inventors routinely use TOPFlash reporter assay for Wnt inhibitor screening. To mimic the constitutively active Wnt signaling found in CRC cells, Wnt signaling was activated by inhibiting GSK3 and stabilizing β-catenin. From screening in house small-molecule libraries, CBA-1 (FIG. 4) was identified that inhibited Wnt signaling in TOPFlash reporter assay. To validate the screening results, CBA-1 was tested in CRC cells.

DLD1 = test: Colon cancer cell proliferation; assay type: cell-based
Protocol: as §1, §2, §3

CRC cells = test: CRC cell proliferation; assay type: cell-based
Excerpt: KDM3A is a Jumonji domain-containing demethylase that regulates the demethylation of histone H3's lysine 9 (H3K9Me^2).

[1] = test system: histone methylation in CRC cells; test: Histone methylation in CRC cells; assay type: cell-based
Excerpt: CBA-1 increased repressive histone methylation on Wnt target genes. The present inventors reported that mutations in APC or β-catenin N-terminal phosphorylation sites prevented β-catenin degradation in CRC cells. […] Because CBA-1 inhibited Wnt signaling in CRC cells, it was reasonable to assume that it inhibited Wnt signaling downstream of β-catenin, most likely by blocking β-catenin activity in the nucleus. Consequently, the present inventors hypothesized that CBA-1 inhibited Wnt signaling epigenetically by altering chromatin remodeling, and they probed the effects of CBA-1 on histone methylation in CRC cells.

Compound: CCCC(=O)NC(c1ccc(N(CC)CC)cc1)c1cc(Cl)c2cccnc2c1O (stereo not shown) [58B1]
- inhibition at 10 µM (FBXL10 (KDM2B)): 30%
- proliferation of CRC cell lines (LS174T; LS174T (β-catenin mutation), 5d, Vi-Cell viability assay): inhibited proliferation
- proliferation of colon cancer cell line (LS174T; LS174T, at low nanomolar concentrations): strongly inhibited
- proliferation of CRC cell lines (DLD1; DLD1 (APC mutation), 5d, Vi-Cell viability assay): inhibited proliferation
- proliferation of colon cancer cell line (DLD1; DLD1, at low nanomolar concentrations): strongly inhibited
- CRC cell proliferation (CRC cells; at 100 nM concentration): inhibited
- sensitivity of CRC cells compared with normal colon cells (CRC cells; expected): more sensitive
- H3K4Me^2 [1]: no effect
- levels of H3K9Me^2 [1]: significantly increased
- levels of H3K9Me^3 [1]: significantly increased
